Reference: patent publication US8802597B2, “Herbicidal pyrimidines” (E I du Pont de Nemours and Company, priority 2003, dated 2014)

What was measured:
Assay type in all cases: in vivo
[1] = test system: rice flatsedge (Cyperus iria); test: Test E flooded paddy water application; conditions: Flood, 21 days, scale 0 to 100 (0 no effect, 100 complete control)
Outline: (§1)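 Greenhouse pots of Tama silt loam with weeds and rice at 2.0–2.5-leaf stage, flooded to 3 cm; compounds applied directly into paddy water, depth maintained. Visual rating versus untreated controls after 21 days, 0 (no effect) to 100 (complete control); 29.5/26.7 °C, 16-h photoperiod.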

[2] = test system: transplanted rice seedlings (Oryza sativa cv. ‘Japonica-M202’); test: Test E flooded paddy water application; conditions: Flood, 21 days, scale 0 to 100 (0 no effect, 100 complete control)
Outline: as §1

[3] = test system: late watergrass (Echinochloa oryzicola); test: Test E flooded paddy water application; conditions: Flood, 21 days, scale 0 to 100 (0 no effect, 100 complete control)
Outline: as §1

[4] = test system: junglerice (Echinochloa colona); test: Test E flooded paddy water application; conditions: Flood, 21 days, scale 0 to 100 (0 no effect, 100 complete control)
Outline: as §1

[5] = test system: early watergrass (Echinochloa oryzoides); test: Test E flooded paddy water application; conditions: Flood, 21 days, scale 0 to 100 (0 no effect, 100 complete control)
Outline: as §1

[6] = test system: ducksalad (Heteranthera limosa); test: Test E flooded paddy water application; conditions: Flood, 21 days, scale 0 to 100 (0 no effect, 100 complete control)
Outline: as §1

[7] = test system: purple redstem (Ammannia coccinea); test: Test E flooded paddy water application; conditions: Flood, 21 days, scale 0 to 100 (0 no effect, 100 complete control)
Outline: as §1

[8] = test system: water seeded rice seedlings (Oryza sativa cv. ‘Japonica-M202’); test: Test E flooded paddy water application; conditions: Flood, 21 days, scale 0 to 100 (0 no effect, 100 complete control)
Outline: as §1

[9] = test system: bearded (brdd.) sprangletop (Leptochloa fusca ssp. fascicularis); test: Test E flooded paddy water application; conditions: Flood, 21 days, scale 0 to 100 (0 no effect, 100 complete control)
Outline: as §1

[10] = test system: barnyardgrass (Echinochloa crus-galli); test: Test E flooded paddy water application; conditions: Flood, 21 days, scale 0 to 100 (0 no effect, 100 complete control)
Outline: as §1

[11] = test system: smallflower umbrella sedge (Cyperus difformis); test: Test E flooded paddy water application; conditions: Flood, 21 days, scale 0 to 100 (0 no effect, 100 complete control)
Outline: as §1

[12] = test system: crabgrass (Digitaria sanguinalis); test: Test A pre/postemergence
Outline: (§2)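 Soil: loam blended with sand. Formulation: non-phytotoxic solvent mixture with surfactant. Timing: preemergence soil spray plus concurrent postemergence spray (plants 2–10 cm, 1–2 leaves). Readout: visual injury versus untreated controls at ~10 days, 0–100.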

[13] = test system: morningglory (Ipomoea spp.); test: Test A pre/postemergence
Outline: as §2

[14] = test system: giant foxtail (Setaria faberi); test: Test A pre/postemergence
Outline: as §2

[15] = test system: redroot pigweed (Amaranthus retroflexus); test: Test A pre/postemergence
Outline: as §2

[16] = test system: velvetleaf (Abutilon theophrasti); test: Test A pre/postemergence
Outline: as §2

[17] = test system: barnyardgrass (Echinochloa crus-galli); test: Test A pre/postemergence
Outline: as §2

[18] = Postemergence, 125 g ai/ha, 0 to 100 scale (0 no effect, 100 complete control)
[19] = Postemergence, 500 g ai/ha, 0 to 100 scale (0 no effect, 100 complete control)
[20] = Preemergence, 125 g ai/ha, 0 to 100 scale where 0 is no effect and 100 is complete control, approximately ten days
[21] = Preemergence, 500 g ai/ha, 0 to 100 scale where 0 is no effect and 100 is complete control, approximately ten days

**Q.** What does the source list for `CCOC(=O)c1nc(-c2ccc(Cl)c(Cl)c2)nc(N)c1Br` [Compound 66]?
**A.** Flatsedge, Rice plant response rating ([1]; 32 g ai/ha): 0; Flatsedge, Rice plant response rating ([1]; 64 g ai/ha): 0; Flatsedge, Rice plant response rating ([1]; 125 g ai/ha): 0; Flatsedge, Rice plant response rating ([1]; 250 g ai/ha): 0; Plant response rating, Flatsedge, Rice ([1]; 16 g ai/ha): 0; Rice, Transplanted plant response rating ([2]; 32 g ai/ha): 0; Rice, Transplanted plant response rating ([2]; 64 g ai/ha): 0; Rice, Transplanted plant response rating ([2]; 125 g ai/ha): 0; Rice, Transplanted plant response rating ([2]; 250 g ai/ha): 0; Plant response rating, Rice, Transplanted ([2]; 16 g ai/ha): 0; Watergrass, Late plant response rating ([3]; 32 g ai/ha): 0; Watergrass, Late plant response rating ([3]; 64 g ai/ha): 0; Watergrass, Late plant response rating ([3]; 125 g ai/ha): 0; Watergrass, Late plant response rating ([3]; 250 g ai/ha): 0; Plant response rating, Watergrass, Late ([3]; 16 g ai/ha): 0; Junglerice plant response rating ([4]; 32 g ai/ha): 0; Junglerice plant response rating ([4]; 64 g ai/ha): 0; Junglerice plant response rating ([4]; 125 g ai/ha): 0; Junglerice plant response rating ([4]; 250 g ai/ha): 0; Plant response rating, Junglerice ([4]; 16 g ai/ha): 0; Watergrass, Early plant response rating ([5]; 32 g ai/ha): 0; Watergrass, Early plant response rating ([5]; 64 g ai/ha): 0; Watergrass, Early plant response rating ([5]; 125 g ai/ha): 0; Watergrass, Early plant response rating ([5]; 250 g ai/ha): 0; Plant response rating, Watergrass, Early ([5]; 16 g ai/ha): 0; Ducksalad plant response rating ([6]; 32 g ai/ha): 100; Ducksalad plant response rating ([6]; 64 g ai/ha): 100; Ducksalad plant response rating ([6]; 125 g ai/ha): 100; Ducksalad plant response rating ([6]; 250 g ai/ha): 100; Plant response rating, Ducksalad ([6]; 16 g ai/ha): 95; Redstem plant response rating ([7]; 32 g ai/ha): 0; Redstem plant response rating ([7]; 64 g ai/ha): 0; Redstem plant response rating ([7]; 125 g ai/ha): 40; Redstem plant response rating ([7]; 250 g ai/ha): 100; Plant response rating, Redstem ([7]; 16 g ai/ha): 0; Rice, Water Seeded plant response rating ([8]; 32 g ai/ha): 0; Rice, Water Seeded plant response rating ([8]; 64 g ai/ha): 0; Rice, Water Seeded plant response rating ([8]; 125 g ai/ha): 0; Rice, Water Seeded plant response rating ([8]; 250 g ai/ha): 0; Plant response rating, Rice, Water Seeded ([8]; 16 g ai/ha): 0; Sprangletop, Brdd. plant response rating ([9]; 32 g ai/ha): 0; Sprangletop, Brdd. plant response rating ([9]; 64 g ai/ha): 0; Sprangletop, Brdd. plant response rating ([9]; 125 g ai/ha): 0; Sprangletop, Brdd. plant response rating ([9]; 250 g ai/ha): 0; Plant response rating, Sprangletop, Brdd. ([9]; 16 g ai/ha): 0; Barnyardgrass plant response rating ([10]; 32 g ai/ha): 0; Barnyardgrass plant response rating ([10]; 125 g ai/ha): 0; Barnyardgrass plant response rating ([10]; 250 g ai/ha): 35; Plant response rating, Barnyardgrass ([10]; 16 g ai/ha): 0; Sedge, Umbrella plant response rating ([11]; 32 g ai/ha): 0; Sedge, Umbrella plant response rating ([11]; 64 g ai/ha): 0; Sedge, Umbrella plant response rating ([11]; 125 g ai/ha): 0; Sedge, Umbrella plant response rating ([11]; 250 g ai/ha): 0; Plant response rating, Sedge, Umbrella ([11]; 16 g ai/ha): 0; Plant response rating, Crabgrass [12, 18]: 0; Plant response rating, Crabgrass [12, 19]: 0; Plant response rating, Crabgrass [12, 20]: 0; Plant response rating, Crabgrass [12, 21]: 15; Plant response rating, Morningglory [13, 18]: 20; Plant response rating, Morningglory [13, 19]: 30; Plant response rating, Morningglory [13, 20]: 0; Plant response rating, Morningglory [13, 21]: 0; Plant response rating, Foxtail, Giant [14, 18]: 0; Plant response rating, Foxtail, Giant [14, 19]: 0; Plant response rating, Foxtail, Giant [14, 20]: 0; Plant response rating, Foxtail, Giant [14, 21]: 0; Plant response rating, Pigweed [15, 18]: 50; Plant response rating, Pigweed [15, 19]: 65; Plant response rating, Pigweed [15, 20]: 0; Plant response rating, Pigweed [15, 21]: 10; Plant response rating, Velvetleaf [16, 18]: 50; Plant response rating, Velvetleaf [16, 19]: 75; Plant response rating, Velvetleaf [16, 20]: 0; Plant response rating, Velvetleaf [16, 21]: 35; Plant response rating, Barnyardgrass [17, 18]: 0; Plant response rating, Barnyardgrass [17, 19]: 0; Plant response rating, Barnyardgrass [17, 20]: 0; Plant response rating, Barnyardgrass [17, 21]: 0
